In article PMC10980815, “Cell surface patching via CXCR4-targeted nanothreads for cancer metastasis inhibition” (Nature Communications, 2024):
Values joined by “and” are separate entries in the source; they are usually repeats but may differ in a detail not shown here. Identical values can stand only once. Ends that are not written are not given here. HPMA copolymer = HPMA copolymer made by RAFT copolymerization of HPMA with N-(3-aminopropyl)methacrylamide (APMA), bearing maleimide groups for grafting

Assays:
[1] = Hydrodynamic size / size distribution by dynamic light scattering; assay type: physicochemical; settings: Malvern Zetasizer Nano ZS90, mean ± SD
Description: (§1) The average molecular weight (Mw) and polydispersity (PDI) of the HPMA copolymer conjugates were determined by gel permeation chromatography (GPC) on an AKTA purifier equipment with a Superose 6 10/300 GL analytical column (GE Healthcare, USA) and a differential refraction detector (KNAUER, 2300, Germany). Hydrodynamic sizes and zeta potentials were determined using a Malvern Zetasizer Nano ZS90 equipment (Malvern Instruments Ltd, Malvern, UK). The contents of BS, CM1, and CM2 were determined using a bicinchoninic acid (BCA) protein assay. The PS concentration was determined by ultraviolet-visible (UV-Vis) spectroscopy at its characteristic absorbance peak (660 nm).
To investigate the coiled-coil assembly, varying CM1-to-CM2 ratios (3:1, 1:1, and 1:3) of P-BS-CM1 and P-CM2 were mixed in 10 mM PBS (pH 7.4) at 25 °C for 10 min. The total polymer concentration was kept constant at 10 mg/mL. Circular dichroism spectra, size distribution, and rheological properties of P-BS-CM1, P-CM2, and their mixture were measured. The surface morphology of P-BS-CM1 and the mixture (P-BS-CM1 + P-CM2) was observed using scanning electron microscopy. Additionally, for the FRET assay, CM1-to-CM2 equimolar of P-BS-CM1-Cy5 and P-CM2-Cy3 were mixed in 10 mM PBS (pH 7.4) at 25 °C for 10 min. Fluorescent spectra of P-BS-CM1-Cy5, P-CM2-Cy3, and the mixture (P-BS-CM1-Cy5+P-CM2-Cy3) were recorded at the Cy3 excitation wavelength of 550 nm.

[2] = ζ-potential (Zetasizer); assay type: physicochemical; settings: Malvern Zetasizer Nano ZS90; mean ± SD
Description: as §1

[3] = system: 4T1 cells; assay: Wound healing assay; assay type: cell-based, murine; settings: stimulated 4T1 cells; individual replicates, n = 3
Description: Wound healing assay and transwell migration and invasion assay were conducted to investigate in vitro metastasis inhibition. For the wound healing assay, 4T1 cells (5 × 10^5 cells) were cultured in 12-well plates (NEST Biotechnology) as monolayer with more than 90% coverage. Sterile 200 μL pipette tips were used to scrape off the cells, generating a linear cell-free area in the middle of the well. Subsequently, cells were washed by PBS to remove debris. In the stimulated group, 4T1 cells were stimulated with CXCL12 (100 ng/mL) for 1 h. […] In the P-BS-CM1 → P-CM2 group, 4T1 cells underwent consecutive treatment with P-BS-CM1 for 1 h and P-CM2 for 1 h before CXCL12 stimulation (1 mg/mL BS equivalence, CM1:CM2, 1:1 mol%). Images of the wound were recorded by a microscope at 0 h and 24 h after CXCL12 stimulation, and the wound healing rate was calculated using Image J software. For the transwell migration and invasion assay, 4T1 cells (5 × 10^5 cells) were seeded in the non-coated upper chamber (Millipore, 8 μm) or GelNest™ matrigel (NEST Biotechnology) pre-coated upper chamber. The cells underwent the same treatment conditions as wound healing assay. After 24 h of treatment, migrated or invaded cells across the membrane were stained with 0.1% crystal violet, imaged by microscope, and quantified by absorbance at 570 nm after dissolution.

[4] = system: LOX; assay: LOX ELISA (intra-tumoral, serum, pulmonary); assay type: in vivo, female BALB/c mice; design: Pulmonary LOX: unit not given beside the values; Intratumoral LOX / Systemic LOX: unit not given here; settings: for Systemic LOX: serum
Description: (§2) 4T1 cells (1 × 10^6 cells) were injected into the third mammary fat pad of female BALB/c mice (6–8-week). […] On day 28, blood samples, lungs and tumors were harvested.
(§3) To explore the “seed-soil” crosstalk, the serum, intra-tumoral, and pulmonary concentration of LOX was determined using enzyme-linked immunosorbent assay kits (CSB-EL013041MO, CUSABIO, https://www.cusabio.com/) according to the manufacturer’s instructions. The serum, intra-tumoral, and pulmonary concentration of TGF-β was determined using mouse TGF-β ELISA Kit (Cat No.: HB1328-Mu). The formation of PMN was investigated through lung slices subjected to immunofluorescent staining of LOX, E-cadherin, and S100A8. For immunofluorescent staining of E-cadherin, Lung slices were stained with CoraLite® Plus 647 anti-mouse CD324 (E-cadherin, 1:300 dilution). For immunofluorescent staining of LOX and S100A8, Lung slices were separately stained with anti-LOX recombinant rabbit monoclonal antibody (1:500 dilution) or S100-A8 / MRP8 rabbit pAb (1:500 dilution), followed by staining with goat anti-rabbit IgG H&L Alexa Fluor® 647 (1:1000 dilution), respectively. Single-cell suspensions of lungs were analyzed using flow cytometry to assess BMDC (CD11b^+Gr1^+) with PE anti-mouse/human CD11b antibody (1:300 dilution) and FITC anti-mouse Ly-6G/Ly-6C (Gr-1) antibody (1:300 dilution). Chemokine concentrations in lungs were determined using a mouse CXCL12 ELISA kit.

[5] = system: pulmonary CD11b+Gr1+ BMDCs; assay: Pulmonary BMDCs (CD11b+Gr1+) by flow cytometry; assay type: in vivo, female BALB/c mice
Description: as §2, §3

[6] = system: TGF-β; assay: TGF-β ELISA (intra-tumoral, serum, pulmonary); assay type: in vivo, female BALB/c mice; design: Pulmonary TGF-β: unit not given beside the values; Intratumoral TGF-β / Systemic TGF-β: unit not given here; settings: for Systemic TGF-β: serum
Description: as §2, §3

[7] = i.v. days 7, 14, 21 (5 mg/kg BS equivalence; P-CM2 24 h later), analysis day 28, mouse 1 of 5

Substance | Size [1] [nm] | ζ-potential [2] [mV] | Wound healing rate (%) [3] | Intratumoral LOX ([4]; replicate 1) | Pulmonary LOX ([4]; replicate 1) | Intratumoral LOX ([4]; replicate 2) | Pulmonary LOX ([4]; replicate 2) | Intratumoral LOX ([4]; replicate 3) | Pulmonary LOX ([4]; replicate 3) | Intratumoral LOX ([4]; replicate 4) | Pulmonary LOX ([4]; replicate 4) | Intratumoral LOX ([4]; replicate 5) | Pulmonary LOX ([4]; replicate 5) | Systemic LOX ([4]; replicate 1) | Systemic LOX ([4]; replicate 2) | Systemic LOX ([4]; replicate 3) | Systemic LOX ([4]; replicate 4) | Systemic LOX ([4]; replicate 5) | Pulmonary CD11b+Gr1+ BMDCs (%) [5, 7] [%] | Pulmonary CD11b+Gr1+ BMDCs (%) ([5]; same, mouse 2 of 5) | further results
P-CM2-Cy3: Cy3-labeled P-CM2 (C(HPMA copolymer)YGGEVSALEKEVSALEKKNSALEKEVSALEKEVSALEK; also: Cy3 label on conjugate, position not given here) | 20.4±0.5 | -9.21±0.67 | – | – | – | – | – | – | – | – | – | – | – | – | – | – | – | – | – | – | –
LGASWHRPDKCCLGYQKRPLPA [Free BS] | – | – | 89.21% and 80.06% and 77.11% | 4.19 | 254.76 | 4.18 | 210.31 | 5.17 | 211.1 | 5.44 | 280.17 | 4.81 | 276.43 | 127.4 | 132.76 | 133.61 | 151.3 | 147.4 | 31.8 | 39.87 | Pulmonary CD11b+Gr1+ BMDCs (%) ([5]; same, mouse 3 of 5): 35.6%; Pulmonary CD11b+Gr1+ BMDCs (%) ([5]; same, mouse 4 of 5): 41%; Pulmonary CD11b+Gr1+ BMDCs (%) ([5]; same, mouse 5 of 5): 39.4%; Intratumoral TGF-β ([6]; replicate 1): 20.98; Pulmonary TGF-β ([6]; replicate 1): 9.12; Intratumoral TGF-β ([6]; replicate 2): 26.43; Pulmonary TGF-β ([6]; replicate 2): 10.3; Intratumoral TGF-β ([6]; replicate 3): 26.11; Pulmonary TGF-β ([6]; replicate 3): 11.1; Intratumoral TGF-β ([6]; replicate 4): 22.3; Pulmonary TGF-β ([6]; replicate 4): 10.7; Intratumoral TGF-β ([6]; replicate 5): 20.45; Pulmonary TGF-β ([6]; replicate 5): 8.9; Systemic TGF-β ([6]; replicate 1): 321.2; Systemic TGF-β ([6]; replicate 2): 324.5; Systemic TGF-β ([6]; replicate 3): 372.1; Systemic TGF-β ([6]; replicate 4): 355.2; Systemic TGF-β ([6]; replicate 5): 352
P-BS: HPMA copolymer-BS conjugate, ~6 BS grafts per polymer (LGASWHRPDKCCLGYQKRPLPA; not fully specified (residues 11, 12); also: about 6 peptides grafted on HPMA copolymer via cysteine-maleimide thioether links) | 15.7±0.8 | -15.53±1.45 | 50.0872% and 55.1712% and 60.2636% | 3.43 | 195.4 | 2.08 | 174.61 | 1.87 | 154.51 | 2.69 | 156.3 | 2.96 | 144.2 | 76.42 | 77.13 | 91.2 | 85.1 | 105.1 | 25.1 | 26.4 | Pulmonary CD11b+Gr1+ BMDCs (%) ([5]; same, mouse 3 of 5): 34.2%; Pulmonary CD11b+Gr1+ BMDCs (%) ([5]; same, mouse 4 of 5): 28.9%; Pulmonary CD11b+Gr1+ BMDCs (%) ([5]; same, mouse 5 of 5): 29.8%; Intratumoral TGF-β ([6]; replicate 1): 15.43; Pulmonary TGF-β ([6]; replicate 1): 5.4; Intratumoral TGF-β ([6]; replicate 2): 15.3; Pulmonary TGF-β ([6]; replicate 2): 5.1; Intratumoral TGF-β ([6]; replicate 3): 19.3; Pulmonary TGF-β ([6]; replicate 3): 7.1; Intratumoral TGF-β ([6]; replicate 4): 17.3; Pulmonary TGF-β ([6]; replicate 4): 6.3; Intratumoral TGF-β ([6]; replicate 5): 15.33; Pulmonary TGF-β ([6]; replicate 5): 4.2; Systemic TGF-β ([6]; replicate 1): 276.4; Systemic TGF-β ([6]; replicate 2): 245.1; Systemic TGF-β ([6]; replicate 3): 225.1; Systemic TGF-β ([6]; replicate 4): 267.3; Systemic TGF-β ([6]; replicate 5): 241.2
